Measurements from patent US4591582A, “Organophosphorus compounds useful as anticonvulsant agents” (priority 1984, dated 1986).
Where two headings read alike, the source gives them in different places.

Key:
[1] = test system: convulsions induced in mice by MES and scMet; settings: reported, Kupferberg, 1980; cited from earlier work
[2] = test system: seizures induced by subcutaneous bicuculline (scBic); settings: data taken from Kupferberg, 1980, cited from earlier work; for ED50, scBic: bicuculline 2.7 mg/kg s.c.
[3] = test system: seizures induced by subcutaneous picrotoxin (scPic); settings: data taken from Kupferberg, 1980, cited from earlier work; for ED50, scPic: picrotoxin 3.2 mg/kg s.c.
[4] = Rotorod neurotoxicity test (failure to remain on rotating rod, 6 rpm, for 1 min); type: in vivo, male Carworth Farms No. 1 mice; settings: mouse, in vivo, ip; mice, i.p., 30 mins. after dosing
Procedure: (§1) All tests were performed on male Carworth Farms No. 1 mice by the Antiepileptic Drug Development Program administered by the Section of Epilepsy, National Institutes of Health, Bethesda, MD 20014, according to previously described procedures [DHEW Publication No. (NIH) 76-1093 (1976), Bethesda, MD]. These involved the inhibition of seizures induced by maximal electroshock (MES) and by three subcutaneously administered chemicals: 85 mg/kg pentylenetetrazol (Metrazol) (scMet), 2.7 mg/kg bicuculline (scBic) and 3.2 mg/kg picrotoxin (scPic). Test compounds were solubilized in polyethylene glycol 400 and administered intraperitoneally in a volume of 0.01 ml/g. The time of peak anticonvulsant activity were determined for II (200 mg/kg), III (300 mg/kg) and IV (300 mg/kg) against MES and for I (200 mg/kg) against scMet with dosing of I-III at 0.5, […]. using four mice per dose. Neurotoxicity was evaluated by placing an animal on a 1 in. diameter knurled plastic rod and rotating at 6 rpm. Failure of the animal to remain on the rod for 1 min. signified neurological toxicity. This testing was performed using groups of eight mice on a time course basis by dosing with I (900 mg/kg), II (400 mg/kg) and III (360 mg/kg) after 0.5, 1, 2 and 4 hrs. and with IV (580 mg/kg) after an additional 6 and 24 hrs. The neurotoxicity was also similarly quantified, with observations taken 30 mins. after dosing, as follows (compound/mg/kg): I, 400, 500, 600, 700, 800, 900; II, 350, 400, 430, 470; III, 230, 260, 300, 360, 420; IV, 150, 300, 400, 500, 580, 600. Quantification of anticonvulsant activity was similarly determined as follows (compound, test, mg/kg), I, MES, 100, 140, 150, 160, 170, 190, 250; I, scMet, 140, 200, 240, 300, 400, 500; I, scBic, 350, 400, 450, 475, 500; I, scPic, 150, 250, 330, 440, 500; II, MES, 130, 170, 200, 230; II, scMet, 150, 180, 230, 300; III, MES, 220, 240, 280, 290, 300; III, scMet, 300, 400, 500, 600; IV, MES, 150, 220, 300, 400, 500, 600; IV, scMet, 300, 410, 470, 600, 760. […] I=dimethyl ester of 3-aminophenylphosphonic acid; II=diethyl ester of 3-aminophenylphosphonic acid; III=diisopropyl ester of 3-aminophenylphosphonic acid; and IV=diethyl-2-acetamidophenylphosphate.

neurotoxicity (Rotorod) [5] = experiment: as above; type: in vivo, male Carworth Farms No. 1 mice
Procedure: as §1

[6] = test system: seizures induced by subcutaneous bicuculline (scBic); experiment: inhibition of seizures induced by subcutaneous bicuculline (scBic), 2.7 mg/kg; type: in vivo, male Carworth Farms No. 1 mice
Procedure: as §1, with “600.” for “600. Quantification of anticonvulsant activity was similarly determined as follows (compound, test, mg/kg), I, MES, 100, 140, 150, 160, 170, 190, 250; I, scMet, 140, 200, 240, 300, 400, 500; I, scBic, 350, 400, 450, 475, 500; I, scPic, 150, 250, 330, 440, 500; II, MES, 130, 170, 200, 230; II, scMet, 150, 180, 230, 300; III, MES, 220, 240, 280, 290, 300; III, scMet, 300, 400, 500, 600; IV, MES, 150, 220, 300, 400, 500, 600; IV, scMet, 300, 410, 470, 600, 760.”

[7] = test system: seizures induced by subcutaneous pentylenetetrazol (Metrazol) (scMet); experiment: inhibition of seizures induced by subcutaneous pentylenetetrazol (Metrazol) (scMet), 85 mg/kg; type: in vivo, male Carworth Farms No. 1 mice; settings: for P.I. (protective index, TD50/ED50), scMet / ED50, scMet: i.p.
Procedure: as §1

[8] = test system: seizures induced by maximal electroshock (MES); experiment: inhibition of seizures induced by maximal electroshock (MES) in mice, intraperitoneal; type: in vivo, male Carworth Farms No. 1 mice; settings: for ED50, MES / P.I. (protective index, TD50/ED50), MES: i.p.; for factor of greater protection against MES than VPA: relative to VPA (valproic acid)
Procedure: as §1

[9] = test system: seizures induced by subcutaneous picrotoxin (scPic); type: in vivo, male Carworth Farms No. 1 mice
Procedure: as §1, with “600.” for “600. Quantification of anticonvulsant activity was similarly determined as follows (compound, test, mg/kg), I, MES, 100, 140, 150, 160, 170, 190, 250; I, scMet, 140, 200, 240, 300, 400, 500; I, scBic, 350, 400, 450, 475, 500; I, scPic, 150, 250, 330, 440, 500; II, MES, 130, 170, 200, 230; II, scMet, 150, 180, 230, 300; III, MES, 220, 240, 280, 290, 300; III, scMet, 300, 400, 500, 600; IV, MES, 150, 220, 300, 400, 500, 600; IV, scMet, 300, 410, 470, 600, 760.”

[10] = test system: convulsions induced in mice by MES and scMet; experiment: time course of protection against convulsions induced by MES and scMet (FIG. 1); type: in vivo; settings: i.p., 300 mg/kg
Procedure: FIG. 1 is a graphical representation showing the time course of percent protection by intraperitoneally administered I-IV against seizures induced by maximal electroshock (MES) or subcutaneous pentylenetetrazol (Metrazol) (scMet). Key: ( ) I (dimethyl ester of 3-aminophenylphosphonic acid) 400 mg/kg, scMet: ( ) II (diethyl ester of 3-aminophenylphosphonic acid) 200 mg/kg, MES; ( ) III (diisopropyl ester of 3-aminophenylphosphonic acid) 300 mg/kg, MES: ( ) IV (diethyl-2-acetamidophenylphosphate) 300 mg/kg, MES.
All tests were performed on male Carworth Farms No. 1 mice by the Antiepileptic Drug Development Program administered by the Section of Epilepsy, National Institutes of Health, Bethesda, MD 20014, according to previously described procedures [DHEW Publication No. (NIH) 76-1093 (1976), Bethesda, MD]. […] The time of peak anticonvulsant activity were determined for II (200 mg/kg), III (300 mg/kg) and IV (300 mg/kg) against MES and for I (200 mg/kg) against scMet with dosing of I-III at 0.5, […]. using four mice per dose. Neurotoxicity was evaluated by placing an animal on a 1 in. diameter knurled plastic rod and rotating at 6 rpm. […]

[11] = test system: seizures induced by subcutaneous pentylenetetrazol (Metrazol) (scMet); settings: data taken from Kupferberg, 1980, cited from earlier work; for ED50, scMet: pentylenetetrazol 85 mg/kg s.c.
neurotoxicity (Rotorod) [12] = settings: data taken from Kupferberg, 1980; cited from earlier work
[13] = test system: seizures induced by maximal electroshock (MES); settings: data taken from Kupferberg, 1980; cited from earlier work
[14] = mice, pentylenetetrazol 85 mg/kg s.c.

SMILES | time to peak effect [1] | ED50, scBic [2] | ED50, scPic [3] | TD50 at 0.5 h [4] | P.I. (protective index, TD50/ED50), scMet ([7]; mice) | ED50, MES ([8]; mice) | P.I. (protective index, TD50/ED50), MES ([8]; mice) | ED50, scMet [11] | further results
CCC1(C)CC(=O)NC1=O (stereo not drawn) [Ethosuximide] | 30 min | 459.01 mg/kg | 242.69 mg/kg | – | – | – | – | – | –
COP(=O)(OC)c1cccc(N)c1 [I, dimethyl ester of 3-aminophenylphosphonic acid] | – | – | – | 680 mg/kg | 2.83 | 166.46 mg/kg | 4.08 | – | neurotoxicity dose level (neurotoxicity (Rotorod) [5]; compared with valproic acid): superior neurotoxicity dose level; P.I. (protective index, TD50/ED50), scBic ([6]; mice, i.p., TD50/ED50): 1.56; ED50, scBic ([6]; mice, i.p., bicuculline 2.7 mg/kg s.c.): 435.94 mg/kg; effectiveness against scBic relative to VPA ([6]; relative to VPA): 1.3 times; times better than valproic acid against chemically induced seizures ([6]; second of two chemically induced seizures (scBic)): 1.3 times; ED50, scMet [7, 14]: 239.93 mg/kg; result in scMet test compared with VPA ([7]; relative to VPA): nearly identical results as VPA; activity profile in all three testing procedures compared with trimethadione ([7]; scMet, scBic, scPic): very similar to trimethadione; factor of greater protection against MES than VPA [8]: 2.6 times; factor of greater protection against MES than VPA ([8]; listed as dimethyl ester of 3-aminophenylphosphonic acid): about 2.5 times; times better than valproic acid against chemically induced seizures ([9]; first of two chemically induced seizures (scPic)): 1.8 times; P.I. (protective index, TD50/ED50), scPic ([9]; mice, i.p., TD50/ED50): 2.02; ED50, scPic ([9]; mouse, in vivo, ip): 336.20 mg/kg; effectiveness against scPic relative to VPA ([9]; relative to VPA): 1.8 times
CCOP(=O)(OCC)c1cccc(N)c1 [II, diethyl ester of 3-aminophenylphosphonic acid] | – | – | – | 389 mg/kg | 1.86 | 175.43 mg/kg | 2.22 | – | ED50, scMet [7, 14]: 208.73 mg/kg; factor of greater protection against MES than VPA [8]: 1.4 times
CC(C)OP(=O)(OC(C)C)c1cccc(N)c1 [III, diisopropyl ester of 3-aminophenylphosphonic acid] | – | – | – | 311 mg/kg | – | 266.49 mg/kg | 1.17 | – | –
CCOP(=O)(OCC)Oc1ccccc1NC(C)=O [IV, diethyl-2-acetamidophenylphosphate] | – | – | – | 458 mg/kg | 1.03 | – | 1.31 | – | latent protective effect in time course [10]: slight degree of latent protective effect; time course of neurotoxicity (neurotoxicity (Rotorod) [5]; mice, i.p., IV 580 mg/kg, up to 24 hours): high and prolonged toxicity beginning after two hours and persisting at this level from 6 to 24 hours; ED50 ([7]; Mus musculus, ip, mice, pentylenetetrazol 85 mg/kg s.c.): 444 mg/kg; ED50 ([8]; Mus musculus, ip, mice): 348 mg/kg
CCC1(c2ccccc2)C(=O)NC(=O)NC1=O [Phenobarbital] | 60 min | 37.72 mg/kg | 27.51 mg/kg | – | – | – | – | 13.17 mg/kg | –
CN1C(=O)OC(C)(C)C1=O [Trimethadione] | 60 min | 532.12 mg/kg | 408.09 mg/kg | – | – | – | – | 300.45 mg/kg | P.I. (protective index, TD50/ED50), scBic [2]: 1.54; TD50, Rotorod neurotoxicity test (neurotoxicity (Rotorod) [12]): 819.07 mg/kg; P.I. (protective index, TD50/ED50), scPic [3]: 2.01; P.I. (protective index, TD50/ED50), scMet [11]: 2.73
CCCC(CCC)C(=O)O [VPA, Valproic Acid] | 16 min | 359.95 mg/kg | 387.21 mg/kg | – | – | – | – | 148.59 mg/kg | ED50, MES [13]: 217.66 mg/kg
